Measurements reported in patent publication US20260355184A1, “SMALL MOLECULE DEGRADERS OF HIV-1 TAT PROTEIN” (priority 2022, published 2026).

How the values were obtained:
[1] = molecular target: T1, recombinant Tat (Human immunodeficiency virus type 1 (HXB3 ISOLATE), UniProt P69698); test: Recombinant Tat stability in HEK293T cells, western blot; format: cell-based, HIV; details: 4 hrs recombinant Tat then 2 hrs compound, n=1
T1 construct: detected with anti-Tat serum
Method: Next, the effect of the three leads on the alteration of Tat steady state levels was assessed. Tat expression from an integrated provirus, or from HIV acute infection is generally too low to be detected by western blot. Furthermore, antibodies against Tat are known for their lack of avidity. Tat degradation was thus assessed upon transfection. Flag-Tat or Flag-GFP were individually transfected into HEK293T and 24 hrs later, TT-44856, TT-44863 or TT-44881 were added to the culture, followed by Western blot 24 hrs later (dubbed “degradation assay”) (FIG. 5A). […] Finally, the leads' impact on recombinant Tat protein in HEK293T cells was assessed (FIG. 5D). HEK293T cells were incubated with recombinant Tat for 4 hrs to allow Tat internalization, followed by several thorough washes to remove unincorporated Tat. Cells were then incubated with all three leads (or Triptolide) for an additional 2 hrs. Cells were lysed and analyzed by western blot with an anti-Tat serum.

[2] = test system: ACH-2 cells; test: Cell-associated HIV Gag mRNA expression / HIV transcription in latently infected ACH-2 cells; format: cell-based; details: ACH-2; 12-day treatment with ARVs
Method: (§1) Next, the activity of these leads against HIV infection was evaluated using the reporter cell line HeLa-CD4-LTR-LacZ, which stably expresses the β-galactosidase (β-Gal) gene under the control of the HIV 5′ LTR. The HIV NL4.3 strain was used for these studies and β-Gal activity was measured 72 hrs post infection (FIG. 3A). Cytotoxicity assays using Cell-Titer-Glo were performed in parallel to assess cell viability (FIG. 3A). […] Their anti-HIV activity was further assessed in acute replication of Jurkat T cells with the NL4.3 strain (FIG. 3A). […] These OM10.1 cells contain a single integrated wild-type provirus, while ACH-2 cells contain a single integrated provirus with a TAR mutation C37T, defective Tat-TAR feedback loop (FIG. 3B).

[3] = test system: TAR (Flag-Tat-Rev fusion protein); test: Flag-Tat-Rev fusion protein transactivation via TAR; format: cell-based, HIV-1; details: TAR reporter
[4] = test system: OM10.1 cells; test: Cell-associated HIV Gag mRNA expression / HIV transcription in latently infected OM10.1 cells; format: cell-based; details: 12-day treatment with ARVs
Method: as §1

[5] = test system: TAR-SIIB promoter (Flag-Tat-Rev fusion protein); test: Flag-Tat-Rev fusion protein transactivation of TAR-SIIB promoter; format: cell-based, HIV-1; details: SIIB reporter HEK293T
Method: FIG. 4. […] Shown is n=1. […] Shown is n=1. ARVs: antiretrovirals: 100 nM Efavirenz, 200 nM Lamivudine and 200 nM Raltegravir. C. […] SIIB: a reporter HEK293T stable cell line where the essential apical region of TAR was replaced by the 29-nucleotide stem-loop IIB (SIIB) subdomain of the HIV-1 RRE. A Tat-Rev fusion protein activates transcription of luciferase when Rev binds SIIB, bringing Tat and P-TEFb to RNAPII at the HIV promoter. Shown is mean±SEM of n=4.

[6] = molecular target: T2, Flag-Tat (Human immunodeficiency virus type 1 (HXB3 ISOLATE), UniProt P69698); test: Degradation assay: Flag-Tat in HEK293T cells, western blot; format: cell-based, HIV
T2 construct: Tat 86 aa likely (9 lysines)
Method: Next, the effect of the three leads on the alteration of Tat steady state levels was assessed. Tat expression from an integrated provirus, or from HIV acute infection is generally too low to be detected by western blot. Furthermore, antibodies against Tat are known for their lack of avidity. Tat degradation was thus assessed upon transfection. Flag-Tat or Flag-GFP were individually transfected into HEK293T and 24 hrs later, TT-44856, TT-44863 or TT-44881 were added to the culture, followed by Western blot 24 hrs later (dubbed “degradation assay”) (FIG. 5A). […] These cells were treated with TNFα (previously determined not be degraded by the three leads in FIG. 2D) in the presence of TT-44856, TT-44863 or TT-44881, followed by western blot with an anti-Flag antibody 17 hrs later. […] Finally, the leads' impact on recombinant Tat protein in HEK293T cells was assessed (FIG. 5D). HEK293T cells were incubated with recombinant Tat for 4 hrs to allow Tat internalization, followed by several thorough washes to remove unincorporated Tat. Cells were then incubated with all three leads (or Triptolide) for an additional 2 hrs. Cells were lysed and analyzed by western blot with an anti-Tat serum.
Degradation of Tat has been reported in the literature in multiple ways, including the lysosomal pathway^23, the ubiquitin-independent 20S proteasomal pathway (due to its unfolded structure)^24,25, and the ubiquitin-dependent 26S proteasomal pathway^26. It was first assessed whether Tat was targeted to the lysosomal pathway by the lead compounds. HEK293T cells were transfected with Flag-Tat for 24 hrs, incubated with the compounds for an additional 24 hrs, then treated for 8 hrs with either 100 μM chloroquine or 50 mM NH4Cl, both known to inhibit lysosomal hydrolases by reducing acidification. […] Both the 20S and the 26S proteasomal pathways were next investigated using MG132, an inhibitor of the catalytic […] of 20S present in both pathways^27. The degradation assay was carried out as above, but compounds were simultaneously incubated with MG132 20 μM or DMSO for 17 hrs followed by western blot. In the presence of MG132, Tat degradation was rescued, but the rescue was higher in the presence of the lead compounds (FIG. 6B).
Protein ubiquitination occurs by sequential recruitment of ubiquitin-activating enzyme E1, ubiquitin-conjugating enzyme E2, and ubiquitin ligase E3 (using ubiquitin, substrate protein, and ATP). The selectivity in protein ubiquitination is conferred by E3 ubiquitin ligases that recognize the substrate proteins^29 and the human genome contains more than 600 E3 ubiquitin ligases^29. To determine whether the small molecule leads trigger the 20S or the 26S proteasomal pathways, the Tat degradation assay was performed in the presence of commercially available E3 ligase inhibitors, including Lenalidomide a E3 ubiquitin ligase Cereblon inhibitor. Cereblon has not been previously reported to ubiquitinate Tat. The degradation assays were performed as above with Lenalidomide (40 μM) or DMSO incubation for 4 hrs in the presence of the lead molecules (FIG. 7A). […] To confirm the engagement of Cereblon in the mechanism of action of the lead compounds, shRNAs were used to stably knock down Cerebelon, or CD8 control, in HEK293T cells, and the degradation assay for TT-44856 was performed.
The involvement of the ubiquitous VHL E3 ligase in the activity of TT-44881 inducing Tat degradation was also investigated. HEK293T cells overexpressing Tat protein and VHL siRNAs (or si control) were treated with either TT-44881 (60 μM) and DMSO or TT-44881 with a VHL PROTAC (CM11, 500 nM) for 24 hours. siRNAs and PROTACs were used together to maximize the depletion of both VHL isoforms (30 and 19 kDa).

[7] = test system: HIV; details: combined with ART; CD4+ T cells from infected individuals and humanized mouse model; cited from earlier work

T2 sequence (P69698 whole entry): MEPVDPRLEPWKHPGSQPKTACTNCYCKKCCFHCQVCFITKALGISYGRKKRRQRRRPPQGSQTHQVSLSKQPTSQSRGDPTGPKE
T1 sequence (P69698 whole entry): as above

Compound	recombinant Tat degradation [1]	Gag mRNA / HIV transcription (in words) [2]	Flag-Tat-Rev / TAR [3]	Gag mRNA / HIV transcription (in words) [4]	Flag-Tat-Rev transactivation of TAR-SIIB [5]	Flag-Tat degradation / steady state ([6]; HEK293T, western blot)	effect of Lenalidomide on compound induced Flag-Tat degradation ([6]; Lenalidomide 40 μM, 4 hrs)	transcription and viral rebound with ART [7]
CC(C)[C@]12O[C@H]1[C@@H]1O[C@]13[C@]1(O[C@H]1C[C@H]1C4=C(CC[C@@]13C)C(=O)OC4)[C@@H]2O [Triptolide, reference compound]	degraded Tat as opposed to the DMSO control	reduced Gag mRNA in both cell lines	inhibition of both TAR and TAR-SIIB	reduced Gag mRNA in both cell lines	inhibition of both TAR and TAR-SIIB	nonspecifically degraded Flag-Tat	did not engage the 26S proteasomal pathway, but only the 20S proteasomal pathway	–
CN(C)[C@H]1C[C@@]23CC[C@@]4(O2)C(=CC[C@]2(C)C(c5ccc6ccncc6c5)=CC[C@H]24)C=C3[C@@H](O)[C@@H]1O [dCA, didehydro-Cortistatin A, reference compound]	–	–	interfered with the Flag-Tat-Rev to TAR binding	only inhibited transcription in OM10.1 cells	–	–	–	inhibits transcription and blocks viral rebound upon treatment interruption
